Legend:
[1] = tested on: E18 rat primary cortical neurons; assay: IC50 in primary cortical neurons; assay type: cell-based
[2] = tested on: primary rat cortical neurons; assay: Axonal microtubule immunostaining in primary neurons; assay type: cell-based; settings: 1 hour; 0.3 to 100 nM; DZ-2384 up to 100 nM, vinorelbine starting at 0.3 nM
[3] = tested on: MDA-MB-231-LM2 breast cancer metastases; assay: MDA-MB-231-LM2 experimental lung metastasis model; assay type: in vivo, SCID/beige mice; settings: for Tumor-free animals: up to 106 days after initial treatment
[4] = tested on: U-2 OS cells stably expressing an EB3-mCherry fusion protein; assay: Growing microtubule ends in EB3-mCherry U-2 OS cells; assay type: cell-based; settings: equipotent (IC80) concentrations
[5] = tested on: U-2 osteosarcoma (OS) cells; assay: 3-day viability assay, U-2 OS; assay type: cell-based
[6] = tested on: purified tubulin; assay: Reconstituted single molecule assay for microtubule dynamics; assay type: biochemical; settings: for Growth and shrinkage rates: 100 nM DZ-2384
[7] = tested on: microtubule polymer mass in H1299 cells; assay: Microtubule sedimentation assay; assay type: cell-based; settings: 4 hours, increasing concentrations
[8] = tested on: U-2 OS osteosarcoma cells; assay: Interphase microtubule immunostaining in U-2 OS cells; assay type: cell-based; settings: unsynchronized, IC80 (300 nM each), 2 hours
[9] = tested on: caudal, digital and tibial nerves; dorsal root ganglia, sciatic nerve; assay: Peripheral neuropathy study; assay type: in vivo, Sprague-Dawley rats; settings: for Caudal and digital NCV / Tibial nerve onset latency / Caudal and digital NCV after recovery / Histology of dorsal root ganglia and sciatic nerve: at MTD (DZ-2384 30 mg/m^2, docetaxel 120 mg/m^2)
[10] = tested on: purified tubulin; assay: Electron microscopy of tubulin oligomer curvature; assay type: biochemical; settings: 10 μM; compared with vinblastine
[11] = Pharmacokinetics in rats; assay type: in vivo, Sprague-Dawley rats; settings: rat; 12 mg/m^2
[12] = tested on: tubulin; assay: Surface plasmon resonance binding and competition; settings: tubulin (3 μM) preincubated with competitor
[13] = tested on: H1299 cells; assay: DNA content and caspase-3 activation in H1299 cells; assay type: cell-based
[14] = Toxicity studies to determine NOAEL; assay type: in vivo, mice; settings: plasma AUC at NOAEL vs at MED
[15] = tested on: Rgs16∷GFP;KIC pancreatic model; assay: Rgs16::GFP; assay type: in vivo, mice
[16] = Plasma exposure by LC-MS/MS at MED and NOAEL doses
[17] = tested on: microtubules in LLC-PK1 cells expressing GFP–α-tubulin; assay: Microtubule dynamic instability in live cells; assay type: cell-based; settings: IC80: 24 nM DZ-2384, 11 nM vinorelbine; mean ± SD
[18] = tested on: human pancreatic cancer PDX; assay: Pancreatic cancer patient-derived xenograft; assay type: in vivo, SCID/beige mice; settings: for Effect on tumor growth: gemcitabine 100 mg/m^2, DZ-2384 36 mg/m^2, alone or combined
[19] = tested on: MIA PaCa-2 model of pancreatic ductal adenocarcinoma; assay: MIA PaCa-2 subcutaneous xenograft efficacy; assay type: in vivo, mice
[20] = tested on: H1299 cells; assay: Growth inhibition of H1299 cells; assay type: cell-based
[21] = tested on: HeLa cells; assay: 3-day cell viability assay, HeLa; assay type: cell-based
[22] = tested on: RS4;11 model of adult Philadelphia chromosome–negative ALL; assay: RS4; assay type: in vivo, mice; settings: P = 0.0028 tumor cells; P = 0.0024 survival
[23] = all doses tested, each xenograft model
[24] = in vivo; settings: mouse
[25] = tested on: tubulin; settings: cited from earlier work
[26] = relative to untreated microtubules

## CC(C)[C@H](O)C(=O)N[C@H]1Cc2ccc3c(c2)[C@]2(C4=C(c5nc(CO)co5)N=C(O4)[C@H](C(C)(C)C)NC1=O)c1cc(F)ccc1N[C@@H]2O3 [DZ-2384]
[1]
  IC50: 43 nM
[2]
  Axonal morphology, width and tubulin staining: minimal qualitative differences
[3]; 4.5 mg/m^2
  Tumor-free animals: 1 of 5
[3]; 18 mg/m^2
  Tumor-free animals: 2 of 8
[3]; all treated groups, P < 0.0001 vs vehicle
  Survival: significantly increased the survival
[3]; starting at the lowest dose tested
  Effect on lung metastases: regression of all lung metastases
[4]
  Number of growing microtubules: decreased the number of growing microtubules
[5]; U-2 OS, 3-day
  IC80: 300 nM
[6]; [26]
  Growth and shrinkage rates: decreased by about twofold
  Catastrophe frequencies: slightly increased
[6]; P = 0.0236 at 50 nM
  Rescue frequency: twice the rate seen with vinorelbine
[7]
  Microtubule polymer mass: decrease in microtubule polymer mass
[8]
  Interphase microtubule network: microtubules were present
[9]; day 24, 12 mg/m^2, vs age-matched controls
  NCV and onset latency: normal NCV and onset latency
[9]; day 24
  Caudal and digital NCV: slowing of the caudal and distal digital NCV
  Tibial nerve onset latency: the tibial nerve was unaffected
[9]; day 44, 12 mg/m^2
  Histology of lumbar dorsal root ganglia and sciatic nerve: no changes
[9]; day 44
  Caudal and digital NCV after recovery: remained slow
  Histology of dorsal root ganglia and sciatic nerve: did not find histological evidence of neurotoxicity
[10]
  Protofilament curvature (κ): straighter
[11]
  AUC: 4371 ng·h/mL
[12]
  Competition of tubulin binding to biotinylated DZ-2384 surfaces: inhibited its binding
[13]
  Start of accumulation in G2-M phase: 4 to 8 h
[13]; after treatment
  Start of apoptosis (procaspase-3 cleavage): 16 h
[14]
  Safety margin (range over MIA PaCa-2 and HT-29 models): 24.4 to 53.5
[15]; administered on P23 (no mortality)
  Tolerability of 30 mg/m^2: tolerated
[16]; mouse plasma AUC at the MED of the HT-29 model
  MED Exposure [AUC0-α]: 344 ng·h/mL
[16]; mouse plasma AUC at the MED of the MIA PaCa-2 model
  MED Exposure [AUC0-α]: 157 ng·h/mL
[16]; mouse plasma AUC at the NOAEL dose
  NOAEL Exposure [AUC0-α]: 8398 ng·h/mL
[17]
  %Time per phase Growth: 42.1 ± 13.1 (0.9109) %
  %Time per phase Pause: 32.7 ± 12.1 (0.7422) %
  %Time per phase Shrink: 25.2 ± 1.4 (0.3079) %
  Dynamicity: 10.4 ±1.4 (0.0335) μm/min
  Growth Distance: 2.4 ± 0.3 (0.0631) μm
  Growth Duration: 19.0 ± 6.2 (0.2666) s
  Growth Rate: 8.3 ±1.6 (0.0164) μm/min
  Shrink Distance: 4.7 ± 0.9 (0.3899) μm
  Shrink Duration: 10.6 ± 1.3 (0.6087) s
  Shrink Rate: 27.7 ± 2.2 (0.6081) μm/min
[18]; day 29
  Deaths: One animal inexplicably died
[18]
  Effect on tumor growth: insignificant effects on tumor growth
[18]; then quickly recovered
  Body weight loss after the first dose: 11%
[19]; 9 mg/m^2, ~3 months after treatment
  Tumor-free animals: all mice were tumor-free
[19]; 4 weekly bolus i.v. administrations
  Tumor response: complete tumor regression
[20]; H1299 cells
  IC50: 12 nM
[21]; 3-day cell viability assay
  IC80: 4 nM
[22]
  Dose reducing circulating tumor cells (day 23) and increasing survival: ≤ 0.7 mg/m^2
[23]
  Body weight loss: less than 10%

## CCC1=C[C@@H]2CN(C1)Cc1c([nH]c3ccccc13)[C@@](C(=O)OC)(c1cc3c(cc1OC)N(C)[C@H]1[C@@](O)(C(=O)OC)[C@H](OC(C)=O)[C@]4(CC)C=CCN5CC[C@]31[C@@H]54)C2 [Vinorelbine, vinorelbine, reference compound]
[2]
  Axonal morphology, width and tubulin staining: thinner and/or fragmented axons
[4]
  Number of growing microtubules: vastly decreasing the number of growing microtubules
[5]; Homo sapiens, U2OS, 72 h
  IC80: 300 nM
[6]; [26]
  Growth and shrinkage rates: Comparable growth and shrinkage rate decreases
[7]
  Microtubule polymer mass: like with vinorelbine
[8]
  Interphase microtubule network: intact microtubules were difficult to observe
[24]
  AUC: 3380 ng·h/mL
[12]
  Competition of tubulin binding to biotinylated DZ-2384 surfaces: blocked its binding
[14]
  Safety margin (range over MIA PaCa-2 and HT-29 models): 0.7 to 1.0
[25]
  Affinity compared to vinblastine: lower affinity
[16]; mouse, in vivo, 30 mg/m^2
  AUC: 2310 ng·h/mL
[17]
  %Time per phase Growth: 13.1 ± 7.3 (0.0074) %
  %Time per phase Pause: 48.4 ± 8.1 (0.0141) %
  %Time per phase Shrink: 38.6 ± 8.6 (0.1068) %
  Dynamicity: 10.2 ±1.3 (0.0165) μm/min
  Growth Distance: 2.1 ± 0.2 (0.0036) μm
  Growth Duration: 17.5 ± 5.8 (0.4242) s
  Shrink Distance: 6.4 ± 1.4 (0.2345) μm
  Shrink Duration: 17.6 ± 6.6 (0.1570) s
  Shrink Rate: 24.6 ± 3.5 (0.1242) μm/min
[20]; Homo sapiens, NCI-H1299
  IC50: 15 nM
[21]; Homo sapiens, 72 h
  IC80: 11 nM
[23]
  Body weight loss: less than 10%

## CC(=O)O[C@@]12CO[C@@H]1C[C@H](O)[C@@]1(C)C(=O)[C@H](O)C3=C(C)[C@@H](OC(=O)[C@H](O)[C@@H](NC(=O)OC(C)(C)C)c4ccccc4)C[C@@](O)([C@@H](OC(=O)c4ccccc4)[C@H]21)C3(C)C [docetaxel, reference compound]
[7]
  Microtubule polymer mass: increased microtubule polymer mass
[9]; day 24
  Caudal and digital NCV: decrease in NCV in caudal and digital nerves
  Tibial nerve onset latency: increase in onset latency in tibial nerves
[9]; day 44
  Caudal and digital NCV after recovery: no improvement in either caudal or digital NCV
  Histology of dorsal root ganglia and sciatic nerve: incomplete recovery of the damaged dorsal root ganglia

## Nc1ccn([C@@H]2O[C@H](CO)[C@@H](O)C2(F)F)c(=O)n1 [gemcitabine, reference compound]
[15]; weanling mice
  Clinical observations: not with gemcitabine alone
[18]
  Effect on tumor growth: insignificant effects on tumor growth

Reference: article PMC5291303 (Science translational medicine, 2016)
